Values joined by “and” are separate entries in the source; they are usually repeats but may differ in a detail not shown here. Equal values may be shown once.
Columns and labels:
[1] = xn = mol fraction of the nth substance listed; conditions: Liquid
[2] = Liquid

C1CCCCC1 [cyclohexane] + CCCC(C)O
[1], x1 = 1
Conditions | mass density, 293.15 K [kg/m3] | mass density, 298.15 K [kg/m3] | mass density, 303.15 K [kg/m3] | speed of sound, 293.15 K [m/s] | speed of sound, 298.15 K [m/s] | speed of sound, 303.15 K [m/s] | viscosity, 293.15 K [mPa·s] | viscosity, 298.15 K [mPa·s] | viscosity, 303.15 K [mPa·s]
7 kPa | – | – | – | 1279 | 1254 | 1230 | – | – | –
101 kPa | 778.62 | 773.92 | 769.19 | – | – | – | 0.968 | 0.887 | 0.816

C1CCCC1 [cyclopentane]
[2], 101 kPa
Conditions | mass density [kg/m3] | speed of sound [m/s] | viscosity
293.15 K | 744.52 | 1232 | 0.438 mPa·s and 0.439 mPa·s
298.15 K | 739.55 | 1206 | 0.416 mPa·s
303.15 K | 734.54 | 1180 | 0.394 mPa·s

C1CCCC1 [cyclopentane] + CCC(C)O
[1], 101 kPa
Conditions | mass density, 293.15 K [kg/m3] | mass density, 298.15 K [kg/m3] | mass density, 303.15 K [kg/m3] | speed of sound, 293.15 K [m/s] | speed of sound, 298.15 K [m/s] | speed of sound, 303.15 K [m/s] | viscosity, 293.15 K [mPa·s] | viscosity, 298.15 K [mPa·s] | viscosity, 303.15 K [mPa·s]
x1 = 0.0445 | 803.52 | 799.33 | 795.05 | 1225 | 1207 | 1188 | 3.152 | 2.621 | 2.194
x1 = 0.1036 | 799.5 | 795.2 | 790.81 | 1219 | 1200 | 1181 | 2.649 | 2.231 | 1.898
x1 = 0.1872 | 793.75 | 789.32 | 784.79 | 1212 | 1192 | 1172 | 2.121 | 1.811 | 1.56
x1 = 0.2856 | 787.01 | 782.42 | 777.74 | 1204 | 1183 | 1162 | 1.604 | 1.393 | 1.219
x1 = 0.3938 | 779.61 | 774.87 | 770.05 | 1197 | 1175 | 1153 | 1.194 | 1.054 | 0.94
x1 = 0.4873 | 773.26 | 768.43 | 763.52 | 1193 | 1170 | 1148 | 0.946 | 0.85 | 0.77
x1 = 0.6179 | 764.92 | 760.01 | 755.02 | 1191 | 1167 | 1144 | 0.692 | 0.636 | 0.588
x1 = 0.7034 | 759.79 | 754.84 | 749.82 | 1193 | 1169 | 1145 | 0.61 | 0.569 | 0.531
x1 = 0.8115 | 753.71 | 748.71 | 743.64 | 1200 | 1175 | 1151 | 0.517 | 0.485 | 0.455
x1 = 0.9113 | 748.61 | 743.57 | 738.46 | 1211 | 1186 | 1161 | 0.468 | 0.441 | 0.416
x1 = 0.9506 | 746.74 | 741.7 | 736.6 | 1218 | 1192 | 1167 | 0.451 | 0.426 | 0.403
x1 = 1 | 744.52 | 739.55 | 734.54 | 1232 | 1206 | 1180 | 0.438 | 0.416 | 0.394

CC(C)O [propan-2-ol] + C1CCCC1
[1], 101 kPa, x2 = 0
Conditions | mass density [kg/m3] | speed of sound [m/s] | viscosity [mPa·s]
293.15 K | 785.07 | 1156 | 2.382
298.15 K | 780.87 | 1139 | 2.045
303.15 K | 776.6 | 1121 | 1.763

CCCC(C)O (stereo not given) [pentan-2-ol] + C1CCCC1
[1], 101 kPa, x2 = 0
Conditions | mass density [kg/m3] | speed of sound [m/s] | viscosity [mPa·s]
293.15 K | 809.04 | 1250 | 4.001
298.15 K | 805.01 | 1232 | 3.273
303.15 K | 800.9 | 1214 | 2.774

CCC(C)O (stereo not given) [butan-2-ol]
[2], 101 kPa
Conditions | mass density [kg/m3] | speed of sound [m/s] | viscosity [mPa·s]
293.15 K | 806.84 | 1230 | 3.623
298.15 K | 802.72 | 1212 | 2.995
303.15 K | 798.51 | 1194 | 2.493

C1CCCCC1 [cyclohexane]
[2]
Conditions | mass density, 293.15 K [kg/m3] | mass density, 298.15 K [kg/m3] | mass density, 303.15 K [kg/m3] | speed of sound, 293.15 K [m/s] | speed of sound, 298.15 K [m/s] | speed of sound, 303.15 K [m/s] | viscosity, 293.15 K [mPa·s] | viscosity, 298.15 K [mPa·s] | viscosity, 303.15 K [mPa·s]
7 kPa | – | – | – | 1279 | 1254 | 1230 | – | – | –
101 kPa | 778.62 | 773.92 | 769.19 | 1279 | 1254 | 1230 | 0.968 | 0.887 | 0.816

Reference: the NIST ThermoML archive (doi:10.1021/je050540h)
